Structures can show the parent of a compound that is named as a salt.
Legend:
Experiment in all cases: Method 1: intracellular Ca2+ release (FLIPR, Calcium 5) in recombinant CHO-K1 cells
Assay type in all cases: cell-based
human S1PR5 receptor = target: T1, human S1PR5 receptor (Homo sapiens, UniProt Q9H228); conditions: agonist potency, determined with method 1 (symbols A-D); read-out: S1P5 EC50 range
T1 construct: host or cells: CHO-K1
Outline: (§1)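 For antagonist mode, compounds were pre-incubated 10 min before phospho-fingolimod at EC80; in agonist mode, compounds were added directly to Calcium 5-loaded CHO-K1 cells co-expressing Gq/i5. Fluorescence was measured on FLIPR, and EC50 was fitted relative to the phospho-fingolimod curve.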

human S1PR1 receptor = target: T2, human S1PR1 receptor (Homo sapiens, UniProt P21453); conditions: (1): determined with method 1; read-out: S1P1 EC50
T2 construct: host or cells: CHO-K1
Outline: as §1

human S1PR3 receptor = target: T3, human S1PR3 receptor (Homo sapiens, UniProt Q99500); conditions: (1): determined with method 1; read-out: S1P3 EC50
T3 construct: host or cells: CHO-K1
Outline: as §1

human S1PR4 receptor = target: T4, human S1PR4 receptor (Homo sapiens, UniProt O95977); conditions: (1): determined with method 1; read-out: S1P4 EC50
T4 construct: host or cells: CHO-K1
T4 sequence (O95977 1-384): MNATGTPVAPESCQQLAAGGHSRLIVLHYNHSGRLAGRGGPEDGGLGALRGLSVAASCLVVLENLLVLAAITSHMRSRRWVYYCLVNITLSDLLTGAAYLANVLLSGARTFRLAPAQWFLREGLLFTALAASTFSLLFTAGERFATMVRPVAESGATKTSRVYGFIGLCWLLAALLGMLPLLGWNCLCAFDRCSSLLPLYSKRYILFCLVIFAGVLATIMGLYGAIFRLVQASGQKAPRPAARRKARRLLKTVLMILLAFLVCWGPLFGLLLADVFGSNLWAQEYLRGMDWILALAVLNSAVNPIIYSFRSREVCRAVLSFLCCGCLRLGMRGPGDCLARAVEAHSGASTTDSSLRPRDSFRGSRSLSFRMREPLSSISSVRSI
Outline: as §1

T1 sequence (Q9H228 whole entry): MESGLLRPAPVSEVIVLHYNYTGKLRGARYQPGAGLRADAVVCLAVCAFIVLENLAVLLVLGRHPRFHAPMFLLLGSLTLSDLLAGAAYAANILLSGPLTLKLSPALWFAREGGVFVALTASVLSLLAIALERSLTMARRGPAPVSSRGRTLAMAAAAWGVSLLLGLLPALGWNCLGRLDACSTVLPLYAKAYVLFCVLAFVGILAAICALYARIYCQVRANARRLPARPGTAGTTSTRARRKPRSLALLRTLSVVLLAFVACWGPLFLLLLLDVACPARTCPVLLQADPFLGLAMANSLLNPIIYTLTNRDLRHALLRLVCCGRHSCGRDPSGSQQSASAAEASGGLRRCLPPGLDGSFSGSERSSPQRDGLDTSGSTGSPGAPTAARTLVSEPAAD
T3 sequence (Q99500 whole entry): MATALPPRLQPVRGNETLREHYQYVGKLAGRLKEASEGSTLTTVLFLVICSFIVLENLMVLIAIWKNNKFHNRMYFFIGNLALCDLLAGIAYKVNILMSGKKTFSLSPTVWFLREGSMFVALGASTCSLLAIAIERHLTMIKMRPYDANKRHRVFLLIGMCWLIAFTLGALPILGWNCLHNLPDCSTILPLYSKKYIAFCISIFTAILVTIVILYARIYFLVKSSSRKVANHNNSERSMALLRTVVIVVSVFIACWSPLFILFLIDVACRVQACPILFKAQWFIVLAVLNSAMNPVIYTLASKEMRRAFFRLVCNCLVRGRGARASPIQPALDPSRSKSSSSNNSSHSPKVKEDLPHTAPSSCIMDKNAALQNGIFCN
T2 sequence (P21453 whole entry): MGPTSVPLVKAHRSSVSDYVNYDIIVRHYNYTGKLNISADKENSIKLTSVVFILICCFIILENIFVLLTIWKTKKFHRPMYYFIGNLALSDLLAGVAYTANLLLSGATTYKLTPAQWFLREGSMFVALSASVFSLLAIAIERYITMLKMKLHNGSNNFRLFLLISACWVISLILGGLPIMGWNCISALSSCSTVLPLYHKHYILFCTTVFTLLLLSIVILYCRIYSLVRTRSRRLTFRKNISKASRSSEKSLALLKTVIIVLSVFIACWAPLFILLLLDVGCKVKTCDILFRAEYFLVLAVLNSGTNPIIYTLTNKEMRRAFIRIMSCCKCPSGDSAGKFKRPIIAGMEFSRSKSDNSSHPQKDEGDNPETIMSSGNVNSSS

Structure (SMILES) | EC50 (human S1PR5 receptor) | EC50 (human S1PR1 receptor) | EC50 (human S1PR3 receptor) | EC50 (human S1PR4 receptor)
O=C(O)CCN1CCc2nc(-c3ccc(OCc4c(Cl)cccc4Cl)cc3)c(F)cc2C1 [Compound 192, 3-(2-(4-((2,6-dichlorobenzyl)oxy)phenyl)-3-fluoro-7,8-dihydro-1,6-naphthyridin-6(5H)-yl)propanoic acid] | < 10 nM | > 1000 nM | > 1000 nM | > 1000 nM
O=C(O)CCN1CCc2nc(-c3ccc(OCc4cccc(F)c4)cc3)c(F)cc2C1 [Compound 193, 3-(2-(4-((3-fluorobenzyl)oxy)phenyl)-3-fluoro-7,8-dihydro-1,6-naphthyridin-6(5H)-yl)propanoic acid] | < 10 nM | > 1000 nM | > 1000 nM | > 1000 nM
CC(C)(CC(=O)O)CN1CCc2nc(-c3ccc(OCc4ccc(Cl)cc4)cc3)ncc2C1 [Compound 210, 4-(2-(4-((4-chlorobenzyl)oxy)phenyl)-7,8-dihydropyrido[4,3-d]pyrimidin-6(5H)-yl)-3,3-dimethylbutanoic acid] | 1000 to 10000 nM | > 1000 nM | > 1000 nM | > 1000 nM
CC(CCC(=O)O)N1CCc2nc(-c3ccc(Cc4ccccc4)cc3)ncc2C1 (stereo not drawn) [Compound 214, 4-(2-(4-benzylphenyl)-7,8-dihydropyrido[4,3-d]pyrimidin-6(5H)-yl)pentanoic acid] | 1000 to 10000 nM | > 1000 nM | > 1000 nM | > 1000 nM
O=C(O)C1(CN2CCc3nc(-c4ccc(OCc5ccc(Cl)cc5)cc4)ncc3C2)CC1 [Compound 215, 1-((2-(4-((4-chlorobenzyl)oxy)phenyl)-7,8-dihydropyrido[4,3-d]pyrimidin-6(5H)-yl)methyl)cyclopropanecarboxylic acid] | 1000 to 10000 nM | > 1000 nM | > 1000 nM | > 1000 nM
O=C(O)C1(CN2CCc3nc(-c4ccc(Cc5ccccc5)cc4)ncc3C2)CC1 [Compound 218, 1-((2-(4-benzylphenyl)-7,8-dihydropyrido[4,3-d]pyrimidin-6(5H)-yl)methyl)cyclopropanecarboxylic acid] | 1000 to 10000 nM | > 1000 nM | > 1000 nM | > 1000 nM
O=C(O)CCN1CCc2cc(OCc3c(Cl)cccc3Cl)ncc2C1 [Compound 219, 3-(6-((2,6-dichlorobenzyl)oxy)-3,4-dihydro-2,7-naphthyridin-2(1H)-yl)propanoic acid hydrochloride] | 100 to 1000 nM | > 1000 nM | > 1000 nM | > 1000 nM
CC(CC(=O)O)CN1CCc2nc(-c3ccc(OCc4ccc(F)cc4)cc3)ncc2C1 (stereo not drawn) [Compound 225, 4-(2-(4-((4-fluorobenzyl)oxy)phenyl)-7,8-dihydropyrido[4,3-d]pyrimidin-6(5H)-yl)-3-methylbutanoic acid] | < 10 nM | > 1000 nM | > 1000 nM | > 1000 nM
CC(CC(=O)O)CN1CCc2nc(-c3ccc(OCc4ccc(C(F)(F)F)cc4)cc3)ncc2C1 (stereo not drawn) [Compound 233, 3-methyl-4-(2-(4-((4-(trifluoromethyl)benzyl)oxy)phenyl)-7,8-dihydropyrido[4,3-d]pyrimidin-6(5H)-yl)butanoic acid] | < 10 nM | < 1000 nM | > 1000 nM | < 1000 nM
C[C@H](CC(=O)O)CN1CCc2nc(-c3ccc(CCc4ccc(Cl)cc4)cc3)ncc2C1 [Compound 237, (R)-4-(2-(4-(4-chlorophenethyl)phenyl)-7,8-dihydropyrido[4,3-d]pyrimidin-6(5H)-yl)-3-methylbutanoic acid] | < 10 nM | > 1000 nM | > 1000 nM | > 1000 nM
CC(CC(=O)O)CN1CCc2nc(-c3ccc(OCc4cccc(C(F)(F)F)c4)cc3)ncc2C1 (stereo not drawn) [Compound 238, 3-methyl-4-(2-(4-((3-(trifluoromethyl)benzyl)oxy)phenyl)-7,8-dihydropyrido[4,3-d]pyrimidin-6(5H)-yl)butanoic acid] | < 10 nM | < 1000 nM | > 1000 nM | < 1000 nM

The next lines start with the values.

EC50 (human S1PR5 receptor) | EC50 (human S1PR1 receptor) | EC50 (human S1PR3 receptor) | EC50 (human S1PR4 receptor) | Structure (SMILES)
< 10 nM | < 1000 nM | > 1000 nM | > 1000 nM | CC(CC(=O)O)CN1CCc2nc(-c3ccc(OCc4cccc(F)c4F)cc3)ncc2C1 (stereo not drawn) [Compound 226, 4-[2-[4-[(2,3-difluorophenyl)methoxy]phenyl]-7,8-dihydro-5H-pyrido[4,3-d]pyrimidin-6-yl]-3-methyl-butanoic acid 2,2,2-trifluoroacetic acid salt]
< 10 nM | > 1000 nM | > 1000 nM | < 1000 nM | CC(CC(=O)O)CN1CCc2nc(-c3ccc(OCc4cccc(F)c4)cc3)ncc2C1 (stereo not drawn) [Compound 227, 4-(2-(4-((3-fluorobenzyl)oxy)phenyl)-7,8-dihydropyrido[4,3-d]pyrimidin-6(5H)-yl)-3-methylbutanoic acid]
< 10 nM | > 1000 nM | > 1000 nM | > 1000 nM | CC(CC(=O)O)CN1CCc2nc(-c3ccc(OCc4ccc(F)c(F)c4)cc3)ncc2C1 (stereo not drawn) [Compound 228, 4-(2-(4-((3,4-difluorobenzyl)oxy)phenyl)-7,8-dihydropyrido[4,3-d]pyrimidin-6(5H)-yl)-3-methylbutanoic acid]
< 10 nM | < 1000 nM | > 1000 nM | > 1000 nM | CC(CC(=O)O)CN1CCc2nc(-c3ccc(OCc4ccccc4Cl)cc3)ncc2C1 (stereo not drawn) [Compound 229, 4-[2-[4-[(2-chlorophenyl)methoxy]phenyl]-7,8-dihydro-5H-pyrido[4,3-d]pyrimidin-6-yl]-3-methyl-butanoic acid 2,2,2-trifluoroacetic acid salt]
< 10 nM | < 1000 nM | > 1000 nM | > 1000 nM | Cc1cccc(COc2ccc(-c3ncc4c(n3)CCN(CC(C)CC(=O)O)C4)cc2)c1 (stereo not drawn) [Compound 230, 3-methyl-4-(2-(4-((3-methylbenzyl)oxy)phenyl)-7,8-dihydropyrido[4,3-d]pyrimidin-6(5H)-yl)butanoic acid]
< 10 nM | > 1000 nM | > 1000 nM | > 1000 nM | Cc1cccc(COc2ccc(-c3ncc4c(n3)CCN(CC(C)CC(=O)O)C4)c(F)c2)c1C (stereo not drawn) [Compound 231, 4-[2-[4-[(2,3-dimethylphenyl)methoxy]-2-fluoro-phenyl]-7,8-dihydro-5H-pyrido[4,3-d]pyrimidin-6-yl]-3-methyl-butanoic acid 2,2,2-trifluoroacetic acid salt]
< 10 nM | > 1000 nM | > 1000 nM | > 1000 nM | CC(CC(=O)O)CN1CCc2nc(-c3ccc(OCc4cccc(Cl)c4)cc3F)ncc2C1 (stereo not drawn) [Compound 232, 4-(2-(4-((3-chlorobenzyl)oxy)-2-fluorophenyl)-7,8-dihydropyrido[4,3-d]pyrimidin-6(5H)-yl)-3-methylbutanoic acid]
< 10 nM | < 1000 nM | > 1000 nM | > 1000 nM | Cc1ccccc1COc1ccc(-c2ncc3c(n2)CCN(CC(C)CC(=O)O)C3)cc1 (stereo not drawn) [Compound 234, 3-methyl-4-[2-[4-(o-tolylmethoxy)phenyl]-7,8-dihydro-5H-pyrido[4,3-d]pyrimidin-6-yl]butanoic acid 2,2,2-trifluoroacetic acid salt]
< 10 nM | < 1000 nM | > 1000 nM | > 1000 nM | CC(CC(=O)O)CN1CCc2nc(-c3ccc(OCc4ccccc4F)cc3)ncc2C1 (stereo not drawn) [Compound 235, 4-[2-[4-[(2-fluorophenyl)methoxy]phenyl]-7,8-dihydro-5H-pyrido[4,3-d]pyrimidin-6-yl]-3-methyl-butanoic acid 2,2,2-trifluoroacetic acid salt]
< 10 nM | > 1000 nM | > 1000 nM | > 1000 nM | CC(CC(=O)O)CN1CCc2nc(-c3ccc(OCc4ccc(Cl)cc4)cc3F)ncc2C1 (stereo not drawn) [Compound 236, 4-(2-(4-((4-chlorobenzyl)oxy)-2-fluorophenyl)-7,8-dihydropyrido[4,3-d]pyrimidin-6(5H)-yl)-3-methylbutanoic acid]
< 10 nM | > 1000 nM | > 1000 nM | > 1000 nM | Cc1ccccc1COc1ccc(-c2ncc3c(n2)CCN(CC(C)CC(=O)O)C3)cc1C (stereo not drawn) [Compound 239]
< 10 nM | > 1000 nM | > 1000 nM | > 1000 nM | CC(CC(=O)O)CN1CCc2nc(-c3ccc(OCc4c(F)cccc4F)cc3F)ncc2C1 (stereo not drawn) [Compound 240, 4-[2-[4-[(2,6-difluorophenyl)methoxy]-2-fluoro-phenyl]-7,8-dihydro-5H-pyrido[4,3-d]pyrimidin-6-yl]-3-methyl-butanoic acid 2,2,2-trifluoroacetic acid salt]
< 10 nM | > 1000 nM | > 1000 nM | > 1000 nM | Cc1c(COc2ccc(-c3ncc4c(n3)CCN(CC(C)CC(=O)O)C4)c(F)c2)cccc1C(F)(F)F (stereo not drawn) [Compound 241, 4-[2-[2-fluoro-4-[[2-methyl-3-(trifluoromethyl)phenyl]methoxy]phenyl]-7,8-dihydro-5H-pyrido[4,3-d]pyrimidin-6-yl]-3-methyl-butanoic acid 2,2,2-trifluoroacetic acid salt]
